We go through five compounds from publication PMC3127977, “No relevant cardiac, pharmacokinetic or safety interactions between roflumilast and inhaled formoterol in healthy subjects: an open-label, randomised, actively controlled study” (BMC Clinical Pharmacology, 2011).

Like-named read-outs stand apart in the source and are kept apart here.

For series [1] the following is noted: cited from earlier work.
Series [2] in a line: Steady-state plasma pharmacokinetics (HPLC-MS/MS) in healthy men; oral roflumilast 500 μg once daily, inhaled formoterol 24 μg twice daily. Conditions: in vivo. Here is the method: For Regimen A, subjects received 500 μg oral roflumilast once daily (daily dose: one tablet of roflumilast 500 μg) from the morning of Day 2 to the morning of Day 18. […] For Regimen B, subjects received 24 μg formoterol for oral inhalation delivered by a DPI device (Foradil® P) twice daily, once in the morning and once in the evening from the morning of Day 2 to the evening of Day 18.
Pre-dose blood samples for determination of trough levels were taken on Days 9 and 10 for Regimen A (morning only), and on Days 6 and 7 (morning and evening) for Regimen B. Blood samples (4.5 mL) were collected in heparinised tubes and plasma was obtained by centrifugation at 1550 g for 15 minutes. Plasma samples were stored at -20°C or below for roflumilast, and at -70°C for formoterol. Plasma concentrations of roflumilast and roflumilast N-oxide were determined using high-performance liquid chromatography coupled with tandem mass spectrometry (HPLC-MS/MS). […] Roflumilast and roflumilast N-oxide standard curves were valid up to 20 ng/mL and 40 ng/mL, respectively. Determination of roflumilast and roflumilast N-oxide was performed at Altana Pharma AG, Konstanz, Germany (Nycomed GmbH). Plasma concentrations of formoterol were determined using HPLC-MS/MS. The LLOQ in plasma was 0.4 pg/mL using a sample volume of 1.0 mL. […] Determination of formoterol was performed at pharm-analyt Labor GmbH, Baden, Austria, under the supervision of Altana Pharma AG(Nycomed GmbH).
For roflumilast, roflumilast N-oxide and formoterol, the maximum plasma concentration (Cmax) was derived directly from the plasma concentrations. The AUC from time zero to the time of the last quantifiable concentration, which corresponded to the dosing interval of each analyte (AUC0-τ), was estimated using the linear trapezoidal method. Apparent clearance at steady state (CL/F; calculated by dose/AUCτ) was reported for roflumilast only. […] The calculation of tPDE4i was based on the equation described in Lahu et al..

For series [3] the following is noted: cited from earlier work. This is another data set of the same source.
[4] abbreviates: CYP3A4 inhibitors co-administered with roflumilast.

In the case of `O=C(Nc1c(Cl)c[n+]([O-])cc1Cl)c1ccc(OC(F)F)c(OCC2CC2)c1` [Roflumilast N-oxide], the “AUC greater than that of roflumilast” value in series [1] is on record as 10 fold. Moreover, in series [1] (repeated dose), the “median effective plasma half-life” value is 30 h and the “median time to maximum plasma concentration (tmax)” value is 8 h. The “changes in steady-state pharmacokinetics when the other drug was added” value in series [2] was “no relevant changes”.
As to `CCCC1O[C@@H]2C[C@H]3[C@@H]4CCC5=CC(=O)C=C[C@]5(C)[C@H]4[C@@H](O)C[C@]3(C)[C@]2(C(=O)CO)O1` (some centres unmarked) [budesonide], the “pharmacokinetic interaction on co-administration with roflumilast” value in series [3] (healthy volunteers) is listed as “no relevant pharmacokinetic interactions”.
`CCn1cc(C(=O)O)c(=O)c2cc(F)c(N3CCNCC3)nc21` [enoxacin]: the “increase of tPDE4i” value in series [3] (CYP1A2 or dual CYP3A4/1A2 inhibitor co-administered with roflumilast) is 25%.
Consider `CC[C@H]1OC(=O)[C@H](C)[C@@H](O[C@H]2C[C@@](C)(OC)[C@@H](O)[C@H](C)O2)[C@H](C)[C@@H](O[C@@H]2O[C@H](C)C[C@H](N(C)C)[C@H]2O)[C@](C)(O)C[C@@H](C)C(=O)[C@H](C)[C@@H](O)[C@]1(C)O` [erythromycin], for which, in series [3] (setting [4]), the “increase of tPDE4i” value is 8-9%.
Regarding `CC(=O)N1CCN(c2ccc(OCC3COC(Cn4ccnc4)(c4ccc(Cl)cc4Cl)O3)cc2)CC1` (centres unmarked) [ketoconazole], the “increase of tPDE4i” value in series [3] (setting [4]) is given as 8-9%.
